What all share (assay type): cell-based
Experiment [1] concerns HIV-1NL4-3 D36G pseudovirus.
Protocol: (§1) HIV-1 pseudoviruses were generated as described previously [32], [55]–[56]. Briefly, 293T cells (5×10^6 cells in 15 ml of growth medium in a T-75 culture flask) were cotransfected with 10 µg of an Env-expressing plasmid and 20 µg of a backbone plasmid pSG3deltaEnv that encodes Env-defective, luciferase-expressing HIV-1 genome using Lipofectamine 2000 reagent (Invitrogen). Pseudovirus-containing culture supernatants were harvested 48 hours after transfection and filtered by 0.45-mm pore size, and stored at −80°C in 1-ml aliquots until use. The 50% tissue culture infectious dose (TCID50) of a single thawed aliquot of each pseudovirus batch was determined in TZM-bl cells. […] Briefly, the peptides were prepared with ten series dilutions in a 3-fold stepwise manner and mixed with 100 TCID50 viruses and incubated 1 hour at room temperature. The mixture was added to TZM-bl cells (10^4/well) and incubation at 37°C for 48 hours. Luciferase activity was measured using luciferase assay regents (Promega, Medison, WI) and a Luminescence Counter (Promega) according to the manufacture's instructions.
Experiment [2] concerns HIV-1NL4-3 V38A pseudovirus.
Protocol: as §1
In experiment [3] the test system is HIV-1NL4-3 I37V/V38T infectious molecular clone.
Protocol: The mutant viruses were generated by transient transfection of NL4-3 plasmids into 293T cells. The virus stocks were harvested 48 hours post-transfection and quantified for TCID50. […] In brief, 100 TCID50 viruses were used to infect TZM-bl cells in the presence or absence of serially diluted peptides. Two days post-infection, the cells were harvested and lysed in reporter lysis buffer, and the luciferase activity was measured. The IC50 was calculated as described above using GraphPad Prism software (GraphPad Prism software Inc., San Diego, CA).
Experiment [4] deals with HIV-1NL4-3 Q40H pseudovirus. As to conditions: HIV-1NL4-3 Q40H; TZM-bl, 48 h; mean ± SD of three independent experiments.
Protocol: (§2) The mutations were created using double-stranded DNA templates and selection of mutants with DpnI. For each mutation, the two primers contained the desired mutation and occupied the same starting and ending positions on opposite strands of the plasmid DNA. DNA synthesis was carried out by PCR in a 50-µL reaction volume using 1 µL of denatured plasmid template (1 ng/µL), 50 pmol of upper and lower primers and 5 U of high-fidelity thermostable polymerase PrimeStar (Takara, Dalian, China). PCR amplification was carried out for one cycle of denaturation at 98°C for 5 min, then 18 cycles of 98°C for 15 s and 68°C for 15 min, followed a final extension at 72°C for 10 min. The amplicons were treated with the restriction enzyme DpnI for 1 h at 37°C. DpnI-resistant molecules, which were rich in the desired mutants, were recovered by transforming Escherichia coli strain-DH5α to antibiotic resistance. The successful mutations were confirmed by sequencing.
as §1
The test system of experiment [5] is HIV-1NL4-3 I37T/N43K pseudovirus. As to conditions: HIV-1NL4-3 I37T/N43K; TZM-bl, 48 h; mean ± SD of three independent experiments.
Protocol: as §2, §1

The IC50 is the point on the concentration scale where inhibition reaches its midpoint.

A value given as a limit tells only on which side of the number the result lay.

As to enfuvirtide, the “increase in sensitivity of D36G mutant” value in experiment [1] (D36G relative to WT HIV-1NL4-3) stood at 8.3 fold. Further, the IC50 in experiment [1] (HIV-1NL4-3 D36G, TZM-bl, 48 h, mean ± SD of three independent experiments) is 7.5 ± 1.3 nM; in experiment [2] (HIV-1NL4-3 V38A, TZM-bl, 48 h, mean ± SD of three independent experiments) it was 1260 ± 182 nM; in experiment [3] (I37V/V38T infectious molecular clone of HIV-1NL4-3, TZM-bl, 100 TCID50, two days, mean ± SD of three independent experiments), > 750 nM; in experiment [4], 731 ± 35.2 nM; in experiment [5] it was > 3000 nM. The “resistance change with V38A (in words)” value in experiment [2] (V38A single mutation) is “high-fold resistance changes”. In addition, the “inhibitory activity on I37V/V38T virus (in words)” value in experiment [3] (infectious molecular clone, T20 up to 750 nM) was “no any inhibitory activity at a concentration up to 750 nM”.

The record behind these values is article PMC3293837, “Biophysical Property and Broad Anti-HIV Activity of Albuvirtide, a 3-Maleimimidopropionic Acid-Modified Peptide Fusion Inhibitor” (PLoS ONE, 2012).
